Molecules are shown by their SMILES. pKi: −log10 of the molar value.

This test deals with T1, recombinant human EP-2 receptor (Homo sapiens, UniProt P43116).
T1 construct: stably transfected with full length cDNA encoding human Prostaglandin E2; expressed in transfected cells
T1 sequence (P43116 whole entry): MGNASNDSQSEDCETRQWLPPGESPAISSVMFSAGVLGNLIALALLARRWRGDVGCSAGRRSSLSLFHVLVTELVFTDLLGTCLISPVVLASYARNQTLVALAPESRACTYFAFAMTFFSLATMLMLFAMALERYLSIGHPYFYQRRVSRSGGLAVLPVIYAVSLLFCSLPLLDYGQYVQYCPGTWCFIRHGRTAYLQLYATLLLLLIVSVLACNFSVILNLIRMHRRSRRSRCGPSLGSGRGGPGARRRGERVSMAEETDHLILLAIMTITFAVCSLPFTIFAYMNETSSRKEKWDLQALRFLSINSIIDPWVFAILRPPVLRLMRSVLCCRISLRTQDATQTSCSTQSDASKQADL
As to the kind of experiment: In vitro antagonist potency against recombinant human prostaglandin E2 (EP-2) receptor in CHO cells (cAMP, Protocol 1). The test is classed as cell-based. The following applies: CHO cells expressing recombinant human EP-2 receptor, stimulated with 5 nM PGE2; cAMP readout; Ki by Cheng-Prusoff equation; read-out: EP2 Ki. The procedure: 1.0 Measurement of In Vitro Antagonist Potency (IC50) of Compounds Against Recombinant Human Prostaglandin E2 Receptor in CHO Cells
The prostaglandin E2 (EP-2) receptor is Gs coupled and agonism of the receptor by PGE2 results in activation of intracellular adenylate cyclase enzymes that synthesise the second messenger signalling molecule, adenosine 3′,5′-cyclic monophosphate (cAMP). CHO cells expressing the recombinant human EP-2 receptor are stimulated with PGE2 (5 nM) equivalent to approximately […] values to give the maximal cAMP signal. Decreases in cAMP levels following treatment of stimulated recombinant EP-2 cells with potential antagonist compounds were measured and potency (IC50) calculated as follows.
A Chinese hamster ovary (CHO) cell line stably transfected with full length cDNA encoding human Prostaglandin E2 was established using standard molecular biology methods. Test compounds were dissolved in dimethyl sulphoxide (DMSO) at 4 mM. 11 point half log unit increment dilution series of test compound were prepared in DMSO then diluted 1 in 40 in a buffer comprised of phosphate buffered saline (PBS) and 0.05% pluronic F-127 surfactant. Freshly cultured cells at 80-90% confluence were harvested and re-suspended in 90% growth media/10% DMSO. The cells were frozen using a planar freezer and stored in frozen aliquots in cryovials in liquid nitrogen until the day of the experiment. A vial of cells was defrosted in a 37° C. water bath for 2 min, then transferred to 10 ml of Dulbecco's Modified Eagle's Medium (DMEM). The cells were then centrifuged for 5 min at 1000 g and the pellet re-suspended at 1,000,000 cells/ml in DMEM. 5,000 cells (5 ul) were added to 5 ul of the compound dilution series in a 384 well assay plate and pre-incubated for 30 min at 37° C. 5 ul of agonist (15 nM PGE2 in PBS to give 5 nM FAC) was added and plates further incubated for 90 min at 37° C. The relative cAMP concentration in each well was then measured using a β-galactosidase enzyme fragment complementation method purchased in kit form as the Discoverx cAMP II kit from GE Healthcare, UK. […] Sigmoidal curves were fitted to plots of log10 inhibitor concentration vs percent effect. IC50 estimates were determined as the concentration of test compound giving an effect half way between the bottom and top asymptotes of the sigmoidal dose response curve. Each experiment included an IC50 determination for the literature compound as a standard to track assay consistency and allow fair comparison between values obtained in different experiments. The EC50 of PGE2 is used in combination with the ligand concentration in the assay to determine Ki values for antagonist dose responses using the Cheng-Prusoff equation. Consequently an agonist dose response curve is carried out for each experiment using the same incubation as the antagonist plate.
Turning to `O=C(c1ccc(Cl)cc1)N1CCC(COc2ccc(-c3ccc(Cl)cc3)nc2)(C(=O)O)C1` (single isomer, unassigned) [Example 33], the negative-log Ki (pKi) is 6.85. As for `O=C(c1ccc(Cl)cc1)N1CCC(COc2cnc(-c3ccc(Cl)cc3)cn2)(C(=O)O)C1` (single isomer, unassigned) [Example 34], the figure is 9.13. As for `O=C(c1ccc(Cl)cc1)N1CCC(COc2cnc(-c3ccc(Cl)cc3)cn2)(C(=O)O)C1` (single isomer, unassigned) [Example 35], the figure is 6.98; as for `O=C(c1ccc(Cl)cc1)N1CCC(COc2ccc(-c3ccc(F)cc3)cc2)(C(=O)O)C1` (single isomer, unassigned) [Example 36], 8.94.

Regarding `O=C(c1ccc(Cl)cc1)N1CCC(COc2ccc(-c3ccc(F)cc3)cc2)(C(=O)O)C1` (single isomer, unassigned) [Example 37], the negative-log Ki (pKi) was 7.52.

On to `COc1ccc(C(=O)N2CCC(COc3cnc(-c4ccc(Cl)cc4)cn3)(C(=O)O)C2)cc1` (single isomer, unassigned) [Example 38], for which the pKi is 8.51. As for `COc1ccc(C(=O)N2CCC(COc3cnc(-c4ccc(Cl)cc4)cn3)(C(=O)O)C2)cc1` (single isomer, unassigned) [Example 39], the figure is 7.32; as for `COc1ccc(C(=O)N2CCC(COc3ccc(-c4ccc(F)cc4)cc3)(C(=O)O)C2)cc1` (single isomer, unassigned) [Example 40], 8.63; as for `COc1ccc(C(=O)N2CCC(COc3ccc(-c4ccc(F)cc4)cc3)(C(=O)O)C2)cc1` (single isomer, unassigned) [Example 41], 7.17.

Take `COc1ccc(C(=O)N2CCC(COc3ccc(-c4ncc(Cl)cn4)cc3)(C(=O)O)C2)cc1` (single isomer, unassigned) [Example 42]: the pKi is 8.53. For `COc1ccc(C(=O)N2CCC(COc3ccc(-c4ncc(Cl)cn4)cc3)(C(=O)O)C2)cc1` (single isomer, unassigned) [Example 43], the pKi was 6.84. As for `COc1ccc(C(=O)N2CCC(COc3ccc(-c4ccc(Cl)cc4)nc3)(C(=O)O)C2)cc1` (single isomer, unassigned) [Example 44], the figure is 8.42; as for `COc1ccc(C(=O)N2CCC(COc3ccc(-c4ccc(Cl)cc4)nc3)(C(=O)O)C2)cc1` (single isomer, unassigned) [Example 45], 6.77; as for `COc1ccc(C(=O)N2CCC(COc3ccc(-c4ccc(Cl)cn4)cc3)(C(=O)O)C2)cc1` (single isomer, unassigned) [Example 46], 7.63.

In the case of `COc1ccc(C(=O)N2CCC(COc3ccc(-c4ccc(Cl)cn4)cc3)(C(=O)O)C2)cc1` (single isomer, unassigned) [Example 47], the pKi is 6.65. As for `COc1ccc(C(=O)N2CCC(COc3cnc(-c4ccc(Cl)cc4)nc3)(C(=O)O)C2)cc1` (single isomer, unassigned) [Example 49], the figure is 6.91. `COc1ccc(C(=O)N2CCC(COc3cnc(-c4ccc(Cl)cc4)nc3)(C(=O)O)C2)cc1` (single isomer, unassigned) [Example 50]: the pKi is 8.73. With `CCOc1ccccc1C(=O)N1CCC(COc2cnc(-c3ccc(Cl)cc3)cn2)(C(=O)O)C1` (single isomer, unassigned) [Example 51], the pKi is 7.71.

Take `CCOc1ccccc1C(=O)N1CCC(COc2cnc(-c3ccc(Cl)cc3)cn2)(C(=O)O)C1` (single isomer, unassigned) [Example 52]: the negative logarithm of the Ki (pKi) was 6.87.

Take `CCOc1ccccc1C(=O)N1CCC(COc2ccc(-c3ccc(F)cc3)cc2)(C(=O)O)C1` (single isomer, unassigned) [Example 53]: the pKi is 7.76. On to `CCOc1ccccc1C(=O)N1CCC(COc2ccc(-c3ccc(F)cc3)cc2)(C(=O)O)C1` (single isomer, unassigned) [Example 54], for which the pKi is 6.41. Take `CCOc1ccccc1C(=O)N1CCC(COc2ccc(-c3ncc(Cl)cn3)cc2)(C(=O)O)C1` (single isomer, unassigned) [Example 55]: the negative-log Ki (pKi) is 7.54.

On to `CCOc1ccccc1C(=O)N1CCC(COc2ccc(-c3ncc(Cl)cn3)cc2)(C(=O)O)C1` (single isomer, unassigned) [Example 56], for which the pKi was 6.33. As for `CCOc1ccccc1C(=O)N1CCC(COc2cnc(-c3ccc(Cl)cc3)nc2)(C(=O)O)C1` (single isomer, unassigned) [Example 57], the figure is 7.53. As for `CCOc1ccccc1C(=O)N1CCC(COc2cnc(-c3ccc(Cl)cc3)nc2)(C(=O)O)C1` (single isomer, unassigned) [Example 58], the figure is 6.05; as for `COc1ccccc1C(=O)N1CCC(COc2cnc(-c3ccc(Cl)cc3)cn2)(C(=O)O)C1` (single isomer, unassigned) [Example 59], 7.01; as for `COc1ccccc1C(=O)N1CCC(COc2ccc(-c3ccc(C#N)cc3)nc2)(C(=O)O)C1` (single isomer, unassigned) [Example 61], 7.58. As for `COc1ccccc1C(=O)N1CCC(COc2ccc(-c3ccc(C#N)cc3)nc2)(C(=O)O)C1` (single isomer, unassigned) [Example 62], the figure is 6.06; as for `COc1ccccc1C(=O)N1CCC(COc2ccc(-c3ncc(F)cn3)cc2)(C(=O)O)C1` (single isomer, unassigned) [Example 63], 6.76; as for `COc1ccccc1C(=O)N1CCC(COc2ccc(-c3ncc(F)cn3)cc2)(C(=O)O)C1` (single isomer, unassigned) [Example 64], 6.21. On to `COc1ccccc1C(=O)N1CCC(COc2ccc(-c3ncc(C#N)cn3)cc2)(C(=O)O)C1` (single isomer, unassigned) [Example 65], for which the negative logarithm of the Ki (pKi) was 6.76. As for `COc1ccccc1C(=O)N1CCC(COc2ccc(-c3ccc(C#N)cc3)cc2)(C(=O)O)C1` (single isomer, unassigned) [Example 66], the figure is 8.48. `COc1ccccc1C(=O)N1CCC(COc2ccc(-c3ccc(C#N)cc3)cc2)(C(=O)O)C1` (single isomer, unassigned) [Example 67]: the pKi was 7.07. Turning to `COc1ccccc1C(=O)N1CCC(COc2ccc(-c3ccc(F)cc3)cc2)(C(=O)O)C1` (single isomer, unassigned) [Example 68], the pKi was 7.84.

For the molecule `COc1ccccc1C(=O)N1CCC(COc2ccc(-c3ccc(F)cc3)cc2)(C(=O)O)C1` (single isomer, unassigned) [Example 69], the pKi was 6.51. As for `COc1ccccc1C(=O)N1CCC(COc2ccc(-c3ccc(Cl)cc3)nc2)(C(=O)O)C1` (single isomer, unassigned) [Example 70], the figure is 7.64; as for `COc1ccccc1C(=O)N1CCC(COc2ccc(-c3ccc(Cl)cc3)nc2)(C(=O)O)C1` (single isomer, unassigned) [Example 71], 7.62; as for `COc1ccccc1C(=O)N1CCC(COc2ccc(-c3ncc(Cl)cn3)cc2)(C(=O)O)C1` (single isomer, unassigned) [Example 72], 7.59. `COc1ccccc1C(=O)N1CCC(COc2ccc(-c3ncc(Cl)cn3)cc2)(C(=O)O)C1` (single isomer, unassigned) [Example 73]: the pKi was 6.34. As for `COc1ccccc1C(=O)N1CCC(COc2cnc(-c3ccc(Cl)cc3)nc2)(C(=O)O)C1` (single isomer, unassigned) [Example 74], the figure is 7.45; as for `COc1ccccc1C(=O)N1CCC(COc2cnc(-c3ccc(Cl)cc3)nc2)(C(=O)O)C1` (single isomer, unassigned) [Example 75], 6.30; as for `COc1ccccc1C(=O)N1CCC(COc2ccc(-c3ccc(F)cc3)nc2)(C(=O)O)C1` (single isomer, unassigned) [Example 76], 6.80. Turning to `O=C(C1CCC1)N1CCC(COc2ccc(-c3ccc(F)cc3)cc2)(C(=O)O)C1` (single isomer, unassigned) [Example 79], the pKi is 7.67. With `O=C(C1CCC1)N1CCC(COc2ccc(-c3ccc(F)cc3)cc2)(C(=O)O)C1` (single isomer, unassigned) [Example 80], the negative-log Ki (pKi) was 6.46. As for `O=C(C1CCCC1)N1CCC(COc2ccc(-c3ccc(F)cc3)cc2)(C(=O)O)C1` (single isomer, unassigned) [Example 81], the figure is 7.26.

The values above are taken from patent US8278343B2, “Pyrrolidines” (Pfizer Inc., priority 2008, dated 2012).
